These results are taken from patent US11851409B2, “Deuterated benzylaminopyrimidinedione derivatives and use thereof” (QINGDAO JI'AO PHARMACEUTICAL TECHNOLOGY CO., LTD, priority 2019, dated 2023).

This data set can be described thus: Pharmacokinetic test in SD rats. In kind it is in vivo. The note with it: male, plasma, rat, iv, 1 mg/kg; for Vd: read-out: Vss. The protocol:
Experimental animals: 4 healthy adult male SD rats (purchased from Hunan SJA Laboratory Animal Co., Ltd) were divided into two groups, […].
Drug preparation: a certain amount of the compound of the present disclosure or MYK461 is weighted, and 10% DMSO, 10% Kolliphor HS15 and 80% saline are added to prepare the compound solution with target concentration.
Administration and sample collection: the animals fasted for 12 h before administration, ate in 3 h after administration, and were administered by intravenous administration (IV, 1 mg/kg) through the posterior limb vein of SD rats and orally intragastric administration (PO, 5 mg/kg), respectively. Then, blood samples were collected from the tail vein of rats at time points of 0, 0.083, 0.25, 0.5, 1, 2, 4, 6, 8, and 24 h, respectively, and the blood volume was about 200-400 μL/time point. After collecting whole blood at each time point, the blood samples were placed in K2EDTA anticoagulant test tubes, which were placed in an incubator with ice packs for preservation. All the samples were centrifuged at 4600 r/min at 4° C. for 5 min within 15 min to obtain plasma. The concentrations of different compounds in rat plasma after administration were determined by LC/MS/MS method. Pharmacokinetic parameters were calculated according to the drug concentration-time curve.

For the compound `[2H]c1c([2H])c([2H])c([C@H](C)Nc2cc(=O)n(C(C)C)c(=O)[nH]2)c([2H])c1[2H]` [Example 1, (S)-3-isopropyl-6-((1-(phenyl-d5)ethyl)amino)pyrimidine-2,4(1H,3H)-dione], the AUC(0-inf) was 6830 ng·h/mL, the AUC(0-t) is 3670 ng·h/mL, the maximum concentration (Cmax) came to 883 ng/mL and the MRT inf worked out at 31.1 h. Moreover, the Tmax was 4.98 min, the clearance was found to be 2.44 mL/min/kg, the half-life was 22.6 h and the Vd is 4.56 L/kg.
`[2H]c1ccc([C@H](C)Nc2cc(=O)n(C(C)C)c(=O)[nH]2)cc1` [Example 2, (S)-3-isopropyl-6-((1-(phenyl-4-d)ethyl)amino)pyrimidine-2,4(1H,3H)-dione] showed an AUC(0-inf) of 4670 ng·h/mL, an AUC(0-t) of 3290 ng·h/mL, a Cmax of 643 ng/mL and a mean residence time (MRT inf) of 18.8 h. Further, the time to peak (Tmax) is 4.98 min, the clearance worked out at 3.57 mL/min/kg, the half-life was 13.9 h and the Vd was 4.03 L/kg.
Consider `[2H]C([2H])([2H])C(n1c(=O)cc(N[C@@H](C)c2ccccc2)[nH]c1=O)C([2H])([2H])[2H]` [Example 5, (S)-6-((1-phenylethyl)amino)-3-(propane-2-yl-1,1,1,3,3,3-d6)pyrimidine-2,4 (1H,3H)-dione], for which the area under the curve AUC(0-inf) stood at 5690 ng·h/mL, the exposure AUC(0-t) was determined as 4450 ng·h/mL, the concentration peaked (Cmax) at 982 ng/mL and the MRT inf came out at 14.8 h. Besides, the Tmax worked out at 4.98 min, the clearance was 2.93 mL/min/kg, the half-life was 11.3 h and the Vd is 2.6 L/kg.
`CC(C)n1c(=O)cc(N[C@@H](C)c2ccccc2)[nH]c1=O` [MYK461, reference compound] yielded an AUC(0-inf) of 3090 ng·h/mL, an area under the curve AUC(0-t) of 2420 ng·h/mL, a peak concentration (Cmax) of 393 ng/mL and an MRT inf of 15.1 h. For the same compound, the Tmax came out at 4.98 min, the clearance came to 5.39 mL/min/kg, the half-life was 11.6 h and the Vd was 4.87 L/kg.

For orientation: AUC(0-inf) means total exposure, with the tail of the curve extrapolated. Low readings indicate less exposure, high ones more exposure. As a reminder, the AUC(0-t) is exposure summed from dosing to a finite time, without extrapolation to infinity. High values mean more exposure, low ones less exposure. The term Cmax denotes the peak of the concentration-time curve. Usually MRT inf stands for a mean duration of stay, worked out from the concentration-time curve. By Tmax is commonly meant the time at which the peak concentration occurs. In general, clearance refers to a measure of how efficiently the substance is removed, as volume per time. Read a high clearance as efficient removal. In general, half-life refers to how long it takes for the measured level to halve. Lower therefore signals fast loss.
